Source: patent US4550186A, “Binuclear copper (II) carboxylates formed from amine-carboxyboranes” (Duke University, priority 1983, dated 1985)
pIC50: −log10 of the molar value.

Tests used:
[1] = test system: deoxyribonuclease; test: In vitro deoxyribonuclease activity; format: biochemical, mouse; details: read-out: ID50, Deoxyribonuclease activity
Description: (§1) CF1 male mice (~30 g) were implanted with 2×10^6 Ehrlich ascites tumor cells, intraperitoneally on Day 0. Compound I was suspended by homogenation in 0.05% polysorbate.80-water and administered intraperitoneally at 10 and 20 mg/kg for 9 days to determine its effectiveness for inhibition of tumor growth. Mice were sacrificed on Day 10, and the ascites fluid was collected from the peritoneal cavity. The volume and ascrit (packed cell volume) were determined for each animal and the percent inhibition of tumor growth was calculated. For the metabolic studies, mice were treated on Days 8 and 9 with 10 mg/kg of Compound I, intraperitoneally. The animal was sacrificed on Day 10 and the ascites fluid harvested. The in vitro metabolic studies were performed at […] final concentration of Compound I.

[2] = molecular target: T1, messenger ribonucleic acid polymerase (Mus musculus, UniProt P08775+Q8CFI7); test: In vitro messenger ribonucleic acid polymerase activity; format: biochemical; details: 0.25 to 1.0 mM
T1 construct: enzymes isolated from nuclei; endogenous in cells; host or cells: Ehrlich ascites tumor cell nuclei, ammonium sulfate fraction
Description: as §1
In vitro and in vivo nuclear deoxyribonucleic acid polymerase activity was determined on isolated Ehrlich ascites cell nuclei. The incubation was that described by Sawada et al [Can. Res., 34, 3341 (1974)] except that [methyl-^3 H] deoxythymidine triphosphate (82.4 Ci/mmol) was used. The acid insoluble nucleic acid was collected on GF/F filters and counted. Nuclear ribonucleic acid polymerase activities were determined on enzymes isolated from nuclei. […] The acid insoluble ribonucleic acid was collected on nitrocellulose filters and counted.

**Q.** “{Cu[(CH3)3 N.BH2 CO2 ]2.(CH3)3 N.BH2 COOH} [Compound I]” was tested. Which pIC50 [1] did it give?
**A.** The pIC50 was 3.17.

**Q.** What about the “messenger ribonucleic acid polymerase inhibition” value [2] of the same substance?
**A.** The value was “not inhibited”.
